Assay results taken from patent publication US9827181B2, “Method and pharmaceutical composition for hair growth” (INDUSTRIAL TECHNOLOGY RESEARCH INSTITUTE, priority 2013, dated 2017).
“Also recorded” adds a separate entry of the source.

Experiments:
[1] = tested on: hair follicles on the dorsal skin of female C57BL/6 mice; test: mouse model of hair regeneration (dorsal skin, refractory telogen phase); conditions: high dosage level (2000 μM) on dorsal skin, once a day for 10 days, negative = no hair growth;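 further: mice roughly 8 weeks old, negative control skin section treated with 100% alcohol, regrowth checked daily with day counted from start of dosing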
Description: The mouse model adopts female C57BL/6 mice (about 8 weeks).
In the present disclosure, the sample solution is applied on the dorsal skin, where the hair follicle stays at the refractory telogen phase, to observe whether the peptides are beneficial to hair growth.
The sample solution is applied on each of the sections for 10 days. The administration of the sample solution includes, but not limited to, the injection (50 μl) and the coating (10 μl). In addition, the dosage of the sample solution includes, but not limited to, the high dosage level (2000 μM) and the low dosage level (200 μM).
In order to avoid experimental error due to manual operation, a positive control and a negative control are predetermined on two sections. […] The second section 2 is coated with high dosage level of HGP or the pharmaceutical composition for 10 days (once a day). The third section 3 is coated with low dosage level of HGP or the pharmaceutical composition for 10 days (once a day). The fourth section 4 is coated with 100% alcohol for 10 days (once a day). The fourth section 4 is regarded as the negative control. The fifth section 5 is continuously injected with the high dosage of HGP or pharmaceutical composition for 10 days (once a day). The sixth section 6 is continuously injected with the low dosage of HGP or pharmaceutical composition for 10 days (once a day). The HGP prepared for the sections is the same amino acid sequence.
HGP or pharmaceutical composition having the same as referred at the table 1 is implemented through the above-mentioned process and then the hair regeneration condition is recorded everyday. Since the period of the refractory telogen phase is 28 days, it is regards as a negative result that no hair regeneration is observed at thirtieth day after the administration of the sample solution.
The number x of the hair growth in the table 3 means that the hair regeneration condition is observed at the x'th day after the high dosage level is administrated on the dorsal skin. For instance, the number (x=5) means that the hair growth is observed at fifth day. Furthermore, the symbol NA represents the need for further analysis. […] In addition, the “negative” represents no hair growth by using the peptide in accordance with the experimental number.

[2] = tested on: marker CK15 of the hair follicle stem cells; test: immuno-fluorescent staining, marker CK15; format: in vivo, mouse; conditions: mice injected with the peptide, FIG. 3
Description: (§1) After the female C57BL/6 mice are injected with the SEQ ID No. 1 peptide, the immuno-fluorescent staining with the marker CK15 is performed so as to observe whether the genes, such as Wnt3a, Wnt/β-catenin are activated or not.
(§2) Thus, the SEQ ID No: 1 peptide enables activation of the regeneration of the hair follicle stem cells. In order to realize how the SEQ ID No: 1 peptide activates the regeneration of the hair follicle stem cells, the immuno-fluorescent staining in accordance with Win/β-catenin signal transduction pathway is performed. […] Since β-catenin is a downstream gene of Wnt signal transduction pathway, activating β-catenin allows the initiation of a Wnt signal transduction pathway so as to regenerate the hair follicle stem cell. […] In other words, the SEQ ID No: 1 peptide may activate the Wnt/β-catenin signal transduction pathway to activate the regeneration of the hair follicle stem cells.

[3] = tested on: Wnt3a in the hair follicle stem cells; test: immuno-fluorescent staining, Wnt3a marker; format: in vivo, mouse; conditions: FIG. 4
Description: as §1, §2

[4] = tested on: β-catenin in the hair follicle stem cells; test: immuno-fluorescent staining, β-catenin marker; format: in vivo, mouse; conditions: FIG. 5, listed as SEQ ID No: 1
Description: as §1, §2

[5] = tested on: β-catenin activity in Human Hair Follicular Keratinocytes (HHFK); test: TCF reporter assay in HHFK cell line; format: cell-based; conditions: HHFK cells, 200 μM peptide, TOP/FOP reporter, FIG. 6; listed as SEQ ID No: 1
Description: (§3) FIG. 6 illustrates a schematic view of a TCF reporter assay in Human Hair Follicular Keratinocytes (HHFK) cell line. TOP represents that the reporter gene has a functional binding site where β-catenin is bound. […] CTL represents that HHFK cell line is not treated with any stimulant. iPept-1 means that HHFK cell line is treated with the SEQ ID No: 1 peptide.
(§4) In the present disclosure, Human Hair Follicular Keratinocytes (HHFK), HaCaT Keratinocyte and macrophages are used as cell models for realizing the mechanism. Reporter assay and QRT-PCR are used as bioactivity assays to identify how the SEQ ID No. 1 peptide improves hair growth.

[6] = tested on: β-catenin activity in HaCaT Keratinocytes; test: TCF reporter assay in HaCaT Keratinocyte cell line; format: cell-based; conditions: HaCaT cells, 200 μM peptide, TOP/FOP reporter, FIG. 7; listed as SEQ ID No: 1
Description: as §3, with “7” for “6”, “HaCaT Keratinocyte” for “Human Hair Follicular Keratinocytes (HHFK)”, “HaCaT Keratinocytes are” for “HHFK cell line is”
as §4

[7] = tested on: Wnt16 gene expression in macrophages; test: RT-PCR / QRT-PCR analysis in macrophages, Wnt16; format: cell-based, human; conditions: 200 μM peptide for 8 hours
Description: (§5) The SEQ ID No. 1 peptide is treated in HHFK, HaCaT and human macrophage to study the hair growth mechanism induced by the SEQ ID No. 1 peptide. In the present disclosure, Human Hair Follicular Keratinocytes (HHFK), HaCaT Keratinocyte and macrophages are used as cell models for realizing the mechanism. Reporter assay and QRT-PCR are used as bioactivity assays to identify how the SEQ ID No. 1 peptide improves hair growth. After macrophages are treated with the 200 μM SEQ ID No: 1 peptide (iPept-1) for 8 hours, gene regulation of Wnt family (Wnt1, Wnt2, Wnt3a, Wnt4, Wnt6, Wnt7a, Wnt7b, Wnt10a, Wnt10b, Wnt16) are detected by RT-PCR and QRT-PCR tests as shown in FIGS. 8 and 9. It is observed that the transcription level of Wnt16 and Wnt7b increases in accordance with the treatment of iPept-1.

[8] = tested on: Wnt7b gene expression in macrophages; test: RT-PCR analysis in macrophages, Wnt7b; format: cell-based, human; conditions: 200 μM peptide for 8 hours
Description: as §5

| Substance | Number x (hair regeneration observed at the x'th day) [1] | also measured |
| --- | --- | --- |
| FGSFGLITHTI (a designed peptide according to experiment) [P39] | negative |  |
| FGSFGSITHTI (a designed peptide according to experiment) [P40] | negative |  |
| FGSFVLITHTI (a designed peptide according to experiment) [P38] | negative |  |
| FGSHVLITHTI (a designed peptide according to experiment) [P37] | negative |  |
| FGTHVLITHTI (a designed peptide according to experiment) [P36] | 15 days |  |
| FSTHVLITHTI (a designed peptide according to experiment) [P35] | 15 days |  |
| GSFGFLITHTI (a designed peptide according to experiment) [P33] | negative |  |
| GSFGSFITHTI (a designed peptide according to experiment) [P34] | negative |  |
| GSFGVLITHTI (a designed peptide according to experiment) [P32] | negative |  |
| GSFHVLITHTI (a designed peptide according to experiment) [P31] | negative |  |
| GSTHVLITHTI (a designed peptide according to experiment) [P30] | 22 days |  |
| HVLIT (a designed peptide according to experiment) [P2] | 17 days |  |
| HVLITHTI (a designed peptide according to experiment) [P15] | negative |  |
| ITHTI (a designed peptide according to experiment) [P7] | 17 days |  |
| LITHT (a designed peptide according to experiment) [P4] | 17 days |  |
| LITHTI (a designed peptide according to experiment) [P17] | 22 days |  |
| PSTHVL (a designed peptide according to experiment) [P8] | 15 days |  |
| PSTHVLGSFGS [P18] | 22 days |  |
| PSTHVLI (a designed peptide according to experiment) [P9] | negative |  |
| PSTHVLIFGSG [P24] | negative |  |
| PSTHVLIGSFG (a designed peptide according to experiment) [P19] | negative |  |

| Substance | Number x (hair regeneration observed at the x'th day) [1] | also measured |
| --- | --- | --- |
| PSTHVLIT (a designed peptide according to experiment) [P10] | negative |  |
| PSTHVLITGSF (a designed peptide according to experiment) [P20] | negative |  |
| PSTHVLITGSG (a designed peptide according to experiment) [P25] | 22 days |  |
| PSTHVLITH (a designed peptide according to experiment) [P11] | 19 days |  |
| PSTHVLITHGS (a designed peptide according to experiment) [P21] | 23 days |  |
| PSTHVLITHSG (a designed peptide according to experiment) [P26] | 22 days |  |
| PSTHVLITHT (a designed peptide according to experiment) [P12] | 19 days |  |
| PSTHVLITHTG (a designed peptide according to experiment) [P22] | 23 days |  |
| PSTHVLITHTI (a designed peptide according to experiments) [P1] | 17 days | activation of marker CK15 of hair follicle stem cells [2]: obviously activated; activation of Wnt3a in hair follicle stem cells [3]: obviously activated; activation of β-catenin in hair follicle stem cells [4]: effect on activating or regenerating the hair follicle stem cells; also recorded: activated; relative luciferase activity (activity of β-catenin) [5]: increase the activity of β-catenin; also recorded: enhance activity of β-catenin; relative luciferase activity (activity of β-catenin) [6]: increase the activity of β-catenin; also recorded: enhance activity of β-catenin; gene expression of Wnt16 (RT-PCR) ([7]; FIG. 8, listed as SEQ ID No: 1): activate the gene expression; gene expression of Wnt16 (RT-PCR) ([7]; FIG. 8, listed as iPept-1): increases; gene expression of Wnt16 (QRT-PCR) ([7]; FIG. 9): enhances the gene expression; gene expression of Wnt7b (RT-PCR) ([8]; FIG. 8, listed as SEQ ID No: 1): activate the gene expression; gene expression of Wnt7b (RT-PCR) ([8]; FIG. 8, listed as iPept-1): increases |
| PSTHVLITHTIS (a designed peptide according to experiment) [P29] | 22 days |  |
| PSTHVLITHTISR (a designed peptide according to experiment) [P28] | negative |  |
| PSTHVLITHTISRI (a designed peptide according to experiment) [P6] | 19 days |  |
| PSTHVLITHTS (a designed peptide according to experiment) [P27] | negative |  |
| PSTHVLLTHTI (a designed peptide according to experiments) [P41] | 19 days |  |
| PSTHVLSFGSG (a designed peptide according to experiment) [P23] | negative |  |
| STHVL (a designed peptide according to experiment) [P5] | 19 days |  |
| STHVLITHTI (a designed peptide according to experiment) [P13] | negative |  |
| THVLITHTI (a designed peptide according to experiment) [P14] | negative |  |
| VLITH (a designed peptide according to experiment) [P3] | 17 days |  |
| VLITHTI (a designed peptide according to experiment) [P16] | negative |  |
